Experiment: Human HepG2 cell viability assay in 384 well format
Type: toxicity, cell-based
Parameters: dose 125 nL, time 70.5 hour; concentration not given beside the values
Settings: HepG2 cells, read-out: Inhibition

SMILES	cytotoxicity at 70.5 h [%]
Nc1nc(CCC(=O)N2CCOC(CC3CCCCC3)C2)cs1 (stereo not drawn)	-2.5
CN(C)[C@H]1CCCCN(C(=O)COCc2nc3cc(F)ccc3[nH]2)C1	15
CC(=O)NCC1CCC2(CCN(c3ncnc4oc(C)nc34)CC2)O1 (stereo not drawn)	21.7
CC(C)COC(C)C(=O)N1CCCC1 (stereo not drawn)	-7.16
Cc1cnn(CCC(=O)NS(=O)(=O)N2CCc3ccccc32)c1	-8.38
CN1CCCN(C[C@@H]2CN(C(=O)CCC3CCCC3)C[C@@H]2CO)CC1	-7.86
CCCS(=O)(=O)NC(=O)c1ccc(-n2nc(C)cc2C)cc1	-6.42
CC(=O)N(Cc1noc(C)n1)C1CCN(CC2CCCC2)C1 (stereo not drawn)	23.3
CC(=O)NCCCNCc1ccc(Cl)c2cccnc12	0.472
N[C@@H]1c2ccccc2C2(CCN(C(=O)c3ccccc3O)CC2)[C@H]1O	-6.11
CS(=O)(=O)Cc1cc(F)ccc1NCc1nnsc1Cl	12.3
CC(C)n1cc(C(=O)NCCCn2ccnc2)c2n[nH]c(=O)c-2c1	-6.63
CC(C)N(C)Cc1nnc2n1CCCN(S(=O)(=O)C1CC1)C2	-5.26
O=C(Cc1cccnc1)N1CCCC(n2cncn2)C1 (stereo not drawn)	-1.4
Cc1cc(C)c(CNC(=O)NCC(O)c2ccccc2F)c(=O)[nH]1 (stereo not drawn)	-2.12
O=C(C1CC=CC1)N1C[C@@H]2CN(Cc3ccsc3)CCO[C@@H]2C1	-15.4
COc1ccc2c(c1)C1(CCN(Cc3cnn(C)c3)CC1)N(C)CC2	-0.704
Cc1cccc(OCCN2CCC(c3ccnn3CCO)CC2)c1	-7.3
CCC(CCO)NS(=O)(=O)c1ccc(Br)cn1 (stereo not drawn)	-0.693
CN1CCO[C@@H]2CN(C(=O)c3ccc4[nH]ccc4c3)CC[C@@H]2C1	-10.4
Cc1ccsc1CNC(=O)NC(C)c1ccc2c(c1)CCC(=O)N2 (stereo not drawn)	-13.4
CCC1CN(C(=O)c2ccccc2N(C)C)CCN1C(C)C (stereo not drawn)	1.87
Cc1cc(N(C)C)nc(C2(C)CCCN2C(=O)c2cnccn2)n1 (stereo not drawn)	-21.4

SMILES	cytotoxicity at 70.5 h [%]
Cc1ccc(F)cc1S(=O)(=O)NCc1[nH]ncc1Br	-0.985
COc1ccccc1COCC(O)CN1CC(n2cccn2)C1 (stereo not drawn)	-10.8
Cc1nn(C)c2nc(NCCN3CCCC(C(N)=O)C3)sc12 (stereo not drawn)	-13.4
CCCc1noc(CN2CCC(C(=O)Nc3cnn(CC)c3)CC2)n1	-14.6
CN1CC(=O)N(C2CCNCC2)Cc2c(NC3CCC3)ncnc21	-7.06
Cc1[nH]ccc1C(=O)N1CCCC(c2ccc(C(=O)O)cc2)C1 (stereo not drawn)	-22.6
COCCCNC(=O)Nc1cccc2c1CCN(S(C)(=O)=O)C2	21.4
CC1=NOC2(CCN(Cc3c[nH]c4ccccc34)CC2)C1	-9.21
CCc1ncc(C(=O)N(CCOC)Cc2nccs2)cn1	5.06
Cc1ccc(NC(=O)CNC(C)CN2CCCCC2)c(F)c1 (stereo not drawn)	6.42
O=C(c1ccccc1F)N1CC2(CCNCC2)c2cc(Cl)ccc21	-9.74
COc1ccc(-c2nonc2N)cc1	-0.886
c1ccc2nc(N3CCCC3c3nnc4n3CCCCC4)cnc2c1 (stereo not drawn)	0.321
COCCN1CCOCC12CCN(Cc1ccn(C)n1)CC2	-5.01
CCN1CCNC(=O)C12CCN(S(=O)(=O)c1ccc(OC)cc1)CC2	-7.91
Clc1ccc(CN2CCN(Cn3nccc3-c3cccnc3)CC2)s1	6.58
CCn1c(C)nnc1CN(C)C1CCN(CCn2cccn2)C1 (stereo not drawn)	7.42
O=C(c1ccoc1)N1CC[C@H]2C[C@@H](c3nnc(C4CC4)o3)O[C@@H]2C1	-12
COc1ccc(N2CCN(C(=O)CCCc3cn[nH]c3)CC2=O)cc1	24.3
Cc1ccc(N2CCCC3(COCCN(c4ccccn4)C3)C2)nn1 (stereo not drawn)	-8.01
Cc1noc(CCCC(=O)NCC(c2ccco2)N2CCCC2)n1 (stereo not drawn)	-14.9
COc1ccccc1CC(=O)N1CC[C@H](O)[C@]2(CCCO2)C1	-6.73
Cc1c(NC(=O)N(C)CCCc2cnn(C)c2)cnn1C	-12.2

SMILES	cytotoxicity at 70.5 h [%]
Cc1nn(C)c(N(C)C)c1CNCc1cccnc1	16.2
O=C(C1CC1)N1CCN(C(=O)CSc2ccccn2)[C@H]2CS(=O)(=O)C[C@H]21	24
CCNc1cc2c(nn1)CCN(C(=O)Cc1ccc(C)s1)C2	0.997
Cn1cccc1-c1cc(C(=O)N2CCCC2C(F)(F)F)[nH]n1 (stereo not drawn)	-5.87
O=C(Cn1cccc1)NCC1CCN(Cc2cc3ccccc3[nH]2)C1 (stereo not drawn)	-16.5
Cc1nn(C)c(N(C)C)c1CNC1CCc2cc(F)ccc21 (stereo not drawn)	-4.67
CN(C)Cc1ccc(CNC(=O)NCC2(C)CCCS2)cc1 (stereo not drawn)	7.26
Cc1csc(C(C)(C)NCC(=O)N2CCCC(C(F)(F)F)C2)n1 (stereo not drawn)	8.68
CC(C)(C)c1cnc(CN2CCC[C@H]2CO)o1	0.665
CCN(CC)S(=O)(=O)N1CCCN(CC(=O)NC(C)C)CC1	6.63
CC(C)N(Cc1ccc(C#N)cc1)C(=O)Nc1ccncc1	-9.08
Cc1oncc1C(=O)NCc1cc(=O)n2c(n1)CN(CC1CC1)CCC2	17.8
c1ccc(-c2nc(CNCCn3cccn3)cs2)cc1	-4.17
Cc1cc(CN2CCC(N(C)Cc3nnc(C4CC4)n3C)C2)on1 (stereo not drawn)	-2.5
CC1CCN(C(=O)[C@H]2C[C@@H]3CCN(CC4CCOCC4)C[C@H]3O2)CC1	-6.03
CN(Cc1ccc2nsnc2c1)C(=O)Cn1ncc(N(C)C)cc1=O	-7.03
CN(C)C(=O)CN1CCN(c2cc(N3CCCC3CO)ncn2)CC1 (stereo not drawn)	-4.56
CC(NC(=O)Nc1ccc(-n2cncn2)cc1)C(=O)NC(C)(C)C (stereo not drawn)	-29.6
CCc1nc(CN2CCCN(C(=O)c3ccnc(C)n3)CC2)cs1	3.9
CN(Cc1cccc(F)c1)C(=O)CN1CCCC1CCc1ccccc1 (stereo not drawn)	-4.07
CC(C)c1noc(CCNC(=O)N2CCSC(C(C)C)C2)n1 (stereo not drawn)	-3.03
Cn1ccc2cc(C(=O)N3CC[C@@]4(O)CCCC[C@H]4C3)ccc21	-13.9
Cc1ccsc1CN1CC[C@H]2OCC[C@@]2(C(=O)N2CCCO2)C1	22.9

SMILES	cytotoxicity at 70.5 h [%]
Cc1ccoc1C(=O)N1CC[C@H]2C[C@H](c3nnc(C4CC4)o3)O[C@@H]2C1	-11.4
CN(C)c1cc2c(nn1)CCN(C(=O)C1COc3ccccc3C1)C2 (stereo not drawn)	3.17
Cc1occc1C(=O)N1CCC2(CCCN(Cc3cccs3)C2)C1 (stereo not drawn)	0.121
NC(=O)c1cc(C2CCCN(C(=O)CCc3ccncc3)C2)n[nH]1 (stereo not drawn)	-4.91
CS(=O)(=O)N1CCOCC12CCN(c1nncs1)CC2	5.03
c1cc(-c2noc(CN3CCn4c(nnc4C4CC4)C3)n2)cs1	-19.2
Cc1ccc(CC(=O)N2CCCCC2c2nc(C)cs2)cn1 (stereo not drawn)	-14.4
CS(=O)(=O)NCC(=O)NC1CCc2nccn2C1 (stereo not drawn)	-7.92
CN(C)S(=O)(=O)c1ccc(CNC(=O)C2CC2)cc1	1.13
COCCn1cnnc1Cn1ccnc1-c1ccoc1	27.2
CN(C)CCn1c2c(ccc1=O)CC(NC(=O)c1ccsc1)CC2 (stereo not drawn)	11.3
CCN(C)c1ncnc2c1CCN(Cc1ccc(OC)cc1)CC2	-2.63
O=C(c1cccnc1)N1CCN2C[C@H](Oc3cncnc3)C[C@H]2C1	-1.31
Cc1cccc2cc(C(=O)N3CCSCC3)n(C)c12	-3.37
Cc1nn(C)cc1S(=O)(=O)N[C@@H]1CC[C@@H](n2ccnc2C)[C@@H]1O	17.7
CC1=C(c2ccc(C)cc2)S(=O)(=O)N=C1N1CCc2ccccc21	-5.39
CC(C)N1[C@H](CN2CCCC2)C[C@@H]2CN(Cc3ccoc3)CC[C@@H]21	-10
CSCc1ccc(N2CCC(C(O)Cc3ccccc3)CC2)nc1 (stereo not drawn)	26.6
Cn1cc(CCCN2CCN(Cc3cccc(O)c3)CC2)cn1	-3.39
OCCC1CN(c2ncnc3[nH]cnc23)CCN1Cc1ccccc1 (stereo not drawn)	-3.48
Cc1nc(NS(=O)(=O)c2ccc(F)c(Br)c2)no1	-2.96
CC(COc1ccc(F)cc1F)NC(=O)NCCN1CCOCC1 (stereo not drawn)	-16
COc1cc(CNCCn2cc(C)cn2)cc2c1OCCO2	1.39

SMILES	cytotoxicity at 70.5 h [%]
CC(C(=O)O)N1CCc2onc(-c3ccc4c(c3)OCO4)c2C1 (stereo not drawn)	-3.84
Cn1cnnc1CC1CCN(Cc2nn(C)c3cccc(Cl)c23)CC1	39.8
CC(Nc1cccc2c1OCCO2)C(=O)Nc1cccc(C#N)c1 (stereo not drawn)	3.49
COc1ccccc1CC(=O)N1CCC(NCc2c[nH]nc2C)CC1	2.03
COCCN(Cc1ccoc1)C(=O)c1ccccc1Cl	6.96
O=C(c1cccc2c1OCO2)N1CCC(N2CCCC2)CC1	-1.7
Cc1noc([C@@H]2C[C@H](NC(=O)NC3CCCCC3)CN2C)n1	-7.54
CC(=O)Nc1ccc(SCC(O)COCc2ccco2)cc1 (stereo not drawn)	-12
CCOc1cccc(CNc2ccccc2C(=O)OC)c1O	3.64
Cc1nc(N)sc1C(=O)N1CCCC(c2nccn2CCCN(C)C)C1 (stereo not drawn)	-5.45
O=C1CC(c2ccc(C(F)(F)F)cc2)c2c(n3ccsc3nc2=O)N1 (stereo not drawn)	-22.1
CC[C@@H]1N(Cc2ccc(F)cc2)CCC[C@]12CCC(=O)N2C	-9.15
CCCN1CCN(C(=O)C(C)n2cc(Br)cn2)CC1 (stereo not drawn)	-7.56
Cc1cccc(C(=O)N2CCCSCC2CN2CCCC2)c1 (stereo not drawn)	-0.415
CC(=O)Nc1ccc(C(=O)NCCCn2cccc2)cc1	-14.1
c1cc(CN2CCSC3(CCCCC3)C2)no1	-1.3
CCN(CC(=O)NC(C)C)C(=O)c1ccc(-c2ccsc2)nc1C	-3.6
CC(=O)c1sc(C(NC(=O)c2ccccc2)C2CC2)nc1C (stereo not drawn)	8.83
CO[C@H]1CCN(C2CCOCC2)C[C@@H]1Cc1ccccc1	-7.39
CNc1cc(C)nc(C2COCCN2CCOc2ccc(F)cc2)n1 (stereo not drawn)	-3.24
COCCSc1ccc(-n2ccnc2)nn1	26.4

Reference: ChEMBL document CHEMBL3507680, “University of Dundee, Gates Library screen for HepG2 cell viability”
